{
  "source": "patent US8222216B2",
  "about": "“Mesenchymal cell proliferation promoter and skeletal system biomaterial” (Osaka University, priority 2006, dated 2012)",
  "key": {"[1]": {"system": "human periodontal ligament cells", "assay": "Adhesion of human periodontal ligament cells to peptide-coated plate (crystal violet)", "assay_type": "cell-based", "details": "plate coated with 0.01 to 100 μg/ml peptide, 30 minutes incubation, P<0.01, n=8, FIG. 11", "procedure": "(§1) An effect that is exerted on adhesive capacity of the mesenchymal cells by the SVVYGLR peptide (SEQ ID NO: 1) was analyzed. The mesenchymal cells used in this example were: human marrow-derived mesenchymal stem cells (human mesenchymal stem cell for study: provided by RIKEN CELL BANK); human gingival fibroblasts (isolated from human gingival and cultured according to a publicly known method); and human periodontal ligament cells (normal human periodontal ligament fibroblast cells: purchased from Sanko Junyaku Co., Ltd).\n(§2) A coating plate was produced through the steps of: adding the synthesized SVVYGLR peptide (SEQ ID NO: 1) (0 to 100 μg/ml) to a 96-well microplate for floating cells (ASAHI TECHNO GLASS CORPORATION) for culturing these cells, allowing the microplate to stand for 2 hours at 37 °C, and rinsing the microplate twice in phosphate buffer (PBS: Sigma Pharmaceuticals Ltd). The SVVYGLR peptide (SEQ ID NO: 1) was synthesized with the method described in example 1. […]\n(§3) The cells attached to the coating plate were stained with 0.1% crystal violet (Wako Chemicals USA. Inc) […], and then rinsed three times with PBS. Twenty-percent TritonX (Sigma Pharmaceuticals Ltd) was added to each well, and 48 hours later, optical density of each well at a wavelength of […] was measured (reference wavelength […]) by using an optical density spectrometer (BioRad model 680)."}, "[2]": {"system": "mesenchymal cells isolated from thigh bone marrow", "assay": "Pellet culture of bone marrow mesenchymal cells (three-dimensional proliferation)", "assay_type": "cell-based, Sprague-Dawley rat", "details": "100 ng/ml peptide", "procedure": "A pellet culture experiment was conducted to analyze how the SVVYGLR peptide (SEQ ID NO: 1) affected the mesenchymal cells when the mesenchymal cells clump together three-dimensionally over a long time.\nThe mesenchymal cells were isolated from thigh bone marrow of a Sprague-Dawley rat (8-week old male), and cultured in a pellet culture with initial count of 50,000 cells based on the method of Tsutsumi S et al. (Biochem Biophys Res Commun. 288:413-419:2001). The incubation was carried out with a culture medium prepared in such a manner that dexamethasone (100 nM, Sigma-Aldrich), ascorbic acid (50 μg/ml, Sigma-Aldrich), ITS+ premix (100 times diluted, BD Biosciences), and recombinant human transforming growth factor-β1 (10 ng/ml, PeproTech EC) were added to α-MEM (high glucose: Nacalai Tesque, Inc). The SVVYGLR peptide (SEQ ID NO: 1) (100 ng/ml) was added to the culture medium and the pellet was incubated for 26 days. The culture medium was replaced every other day.\nThe pellet was collected and fixed in phosphate buffered 10% formalin solution for 3 hours at 4° C. After the pellet was washed with PBS (pH7.4), the pellet was soaked in the PBS of a culture plate and photographed under a phase contrast microscope. Planar dimensions of the pellet on a photographed image were measured by using an image analysis software ImageJ ver.1.33u (National Institute of health, USA)."}, "[3]": {"system": "human bone marrow-derived mesenchymal stem cells", "assay": "Proliferation of human marrow-derived mesenchymal stem cells (WST-1 cell counting)", "assay_type": "cell-based", "details": "10 to 100 ng/ml peptide, day-4 or later, P<0.01, n=6, FIG. 1", "procedure": "(§4) An in vitro experiment was conducted to analyze how the SVVYGLR peptide (SEQ ID NO: 1) affected a proliferating ability of mesenchymal cells present in intercellular substances of bone marrow and dental pulp.\n(§5) Purchased human bone marrow-derived mesenchymal stem cells (Cambrex BioScience Inc.) were used as the mesenchymal cells of the intercellular substance of bone marrow. Further, “dental pulp cells”, the mesenchymal cells that constitute a main component of dental pulp tissue, were isolated from a lower incisor of a Sprague-Dawley rat (8-week old male) and cultured based on the method of Nakamura H et al. (J Dent Res. 84: 515-520: 2005), and used for the experiment.\n(§6) These cells were seeded into a 96-well cell culture plate at a rate of 5,000 cells/well, and the number of cells under the presence of the SVVYGLR peptide (SEQ ID NO: 1) (0 to 100 ng/ml) was measured by using WST-1 Cell Counting Kit (DOJINDO LABORATORIES). A culture medium was replaced every other day."}, "dental pulp cells": {"system": "dental pulp cells", "assay": "Proliferation of dental pulp cells (WST-1 cell counting)", "assay_type": "cell-based, Sprague-Dawley rat", "details": "10 to 100 ng/ml peptide, day-10 or later, P<0.01, n=6, FIG. 2", "procedure": "as §4, §5, §6"}, "[4]": {"system": "human marrow-derived mesenchymal stem cells", "assay": "Adhesion of human marrow-derived mesenchymal stem cells to peptide-coated plate (crystal violet)", "assay_type": "cell-based", "details": "plate coated with 0.01 to 100 μg/ml peptide, 30 minutes incubation, P<0.01, n=8, FIG. 9", "procedure": "as §1, §2, §3"}, "[5]": {"system": "human gingival fibroblasts", "assay": "Adhesion of human gingival fibroblasts to peptide-coated plate (crystal violet)", "assay_type": "cell-based", "details": "plate coated with 0.01 to 100 μg/ml peptide, 30 minutes incubation, P<0.01, n=8, FIG. 10", "procedure": "as §1, §2, §3"}},
  "note": "No end group written: not given here.",
  "data": [
    {"substance": "SVVYGLR [SVVYGLR peptide, osteopontin-derived peptide of seven amino acids, synthesized by Fmoc solid-phase method]", "values": [
      {"measurement": "number of human periodontal ligament cells adhered to coated plate compared to control", "setting": "[1]", "result": "significantly increased density-dependently"},
      {"measurement": "toluidine blue staining of pellet segments (extracellular matrix, acid mucopolysaccharide)", "setting": "[2]; 26 days pellet culture", "result": "no toluidine blue staining was observed"},
      {"measurement": "pellet size (planar dimensions) relative to control group", "setting": "[2]; incubated 26 days, three pellets per group, FIG. 4", "result": 1.5, "unit": "times"},
      {"measurement": "number of human marrow-derived mesenchymal stem cells compared to control group", "setting": "[3]", "result": "significantly increased"},
      {"measurement": "number of dental pulp cells compared to control group", "setting": "dental pulp cells", "result": "significantly increased"},
      {"measurement": "number of human marrow-derived mesenchymal stem cells adhered to coated plate compared to control", "setting": "[4]", "result": "significantly increased density-dependently"},
      {"measurement": "number of human gingival fibroblasts adhered to coated plate compared to control", "setting": "[5]", "result": "significantly increased density-dependently"}
    ]}
  ]
}
